This data set has as its system rodent lifetime carcinogenesis bioassay, tumor incidence TD50. In words: chronic cancer bioassays in animals – CPDB, compiled studies (AID 1745844).

Activity calls are given as the source filed them. No rule for the calls is given here.

A word on the TD50: it is the 50% point of the dose-response relation for the toxic effect studied. In the case of `c1ccc2ccccc2c1`, the TD50 reads like this: (mouse, strain B6C3F1, females, inhaled, site: any site (literature study), lesion: several types, types named in the paper, dosed 103 weeks, study length 104 weeks) 128 mg/kg/day; (mouse, strain B6C3F1, females, inhaled, site: lung, lesion: alveolar/bronchiolar adenoma + alveolar/bronchiolar carcinoma, dosed 103 weeks, study length 104 weeks) 163 mg/kg/day; (mouse, strain B6C3F1, females, inhaled, site: lung, lesion: alveolar/bronchiolar adenoma, dosed 103 weeks, study length 104 weeks) 171 mg/kg/day; (mouse, strain B6C3F1, females, inhaled, site: lung, lesion: alveolar/bronchiolar carcinoma, dosed 103 weeks, study length 104 weeks) 4020 mg/kg/day; (rat, strain Fischer 344, females, inhaled, site: nasal cavity, olfactory epithelium + nasal cavity, respiratory epithelium, lesion: neuroblastoma + adenoma, dosed 105 weeks, study length 105 weeks) 37.3 mg/kg/day; (rat, strain Fischer 344, females, inhaled, site: nasal cavity, olfactory epithelium, lesion: neuroblastoma, dosed 105 weeks, study length 105 weeks) 52.9 mg/kg/day. The TD50 was 121 mg/kg/day (rat, strain Fischer 344, females, inhaled, site: nasal cavity, respiratory epithelium, lesion: adenoma, dosed 105 weeks, study length 105 weeks); 27.5 mg/kg/day (rat, strain Fischer 344, males, inhaled, site: any site (literature study), lesion: several types, types named in the paper, dosed 104 weeks, study length 104 weeks); 171 mg/kg/day (rat, strain Fischer 344, males, inhaled, site: liver, lesion: hepatocellular adenoma + hepatoblastoma + hepatocellular carcinoma, dosed 104 weeks, study length 104 weeks); 133 mg/kg/day (rat, strain Fischer 344, males, inhaled, site: mammary gland, lesion: fibroadenoma, dosed 104 weeks, study length 104 weeks); 12.3 mg/kg/day (rat, strain Fischer 344, males, inhaled, site: nasal cavity, olfactory epithelium + nasal cavity, respiratory epithelium, lesion: neuroblastoma + adenoma, dosed 104 weeks, study length 104 weeks); 88 mg/kg/day (rat, strain Fischer 344, males, inhaled, site: nasal cavity, olfactory epithelium, lesion: neuroblastoma, dosed 104 weeks, study length 104 weeks). For the same compound, under “rat, strain Fischer 344, males, inhaled, site: nasal cavity, respiratory epithelium, lesion: adenoma, dosed 104 weeks, study length 104 weeks”, the TD50 was 14 mg/kg/day. Moreover, the carcinogen call (mouse, strain B6C3F1, males, inhaled, site: any site (literature study), lesion: several types, types named in the paper, dosed 103 weeks, study length 104 weeks) is “negative (inactive)”.

As for `CC(C)Oc1ccccc1OC(=O)N(C)N=O`, the TD50 runs as follows: (rat, strain Sprague-Dawley, males, by gavage, site: forestomach, lesion: carcinoma, dosed 31 weeks, study length 90 weeks) 0.434 mg/kg/day; (rat, strain Sprague-Dawley, males, by gavage, site: forestomach, lesion: one or several types, types not named, dosed 31 weeks, study length 90 weeks) 0.364 mg/kg/day.

In the case of `CC[N+]([O-])=NC`, the TD50 is, setting by setting: (rat, strain Fischer 344, males, in drinking water, site: colon, lesion: several types, types named in the paper, dosed 30 weeks, study length 55 weeks) 0.125 mg/kg/day; (rat, strain Fischer 344, males, in drinking water, site: ileum, lesion: one or several types, types not named, dosed 30 weeks, study length 55 weeks) 0.221 mg/kg/day; (rat, strain Fischer 344, males, in drinking water, site: liver, lesion: hemangiosarcoma, dosed 30 weeks, study length 55 weeks) 0.0391 mg/kg/day; (rat, strain Fischer 344, males, in drinking water, site: liver, lesion: hepatocellular carcinoma, dosed 30 weeks, study length 55 weeks) 0.0189 mg/kg/day; (rat, strain Fischer 344, males, in drinking water, site: liver, lesion: neurosarcoma, dosed 30 weeks, study length 55 weeks) 0.0832 mg/kg/day. Where the note is “rat, strain Fischer 344, males, in drinking water, site: liver, lesion: several types, types named in the paper, dosed 30 weeks, study length 55 weeks”, the carcinogen call is “positive”.

Turning to `CC(Cl)C=O` (configuration not stated), the TD50 was 12.9 mg/kg/day (mouse, strain Ha/ICR, females, by gavage, site: forestomach, lesion: one or several types, types not named, dosed 89 weeks, study length 89 weeks) and 22.7 mg/kg/day (mouse, strain Ha/ICR, males, by gavage, site: forestomach, lesion: one or several types, types not named, dosed 89 weeks, study length 89 weeks).

With `CC(O)C(=O)O` (configuration not stated), the TD50 worked out at 103000 mg/kg/day (rat, strain F344/DuCrj, females, in drinking water, site: any site (literature study), lesion: one or several types, types not named, dosed 104 weeks, study length 113 weeks) and 54500 mg/kg/day (rat, strain F344/DuCrj, males, in drinking water, site: liver, lesion: hepatocellular adenoma, dosed 104 weeks, study length 113 weeks).

With `Cc1cc(OC(=O)N(C)C)n(C(C)C)n1`, the TD50 by setting is: (mouse, strain B6AKF1, females, oral dosing, site: any site (literature study), lesion: several types, types named in the paper, dosed 76 weeks, study length 76 weeks) 0.023 mg/kg/day (inactive); (mouse, strain B6AKF1, males, oral dosing, site: any site (literature study), lesion: several types, types named in the paper, dosed 76 weeks, study length 76 weeks) 0.0124 mg/kg/day (inactive); (mouse, strain B6AKF1, males, oral dosing, site: liver, lesion: hepatoma, dosed 76 weeks, study length 76 weeks) 0.0419 mg/kg/day (inactive); (mouse, strain B6AKF1, males, oral dosing, site: lung, lesion: adenoma, dosed 76 weeks, study length 76 weeks) 0.0147 mg/kg/day (inactive); (mouse, strain B6C3F1, males, oral dosing, site: any site (literature study), lesion: several types, types named in the paper, dosed 76 weeks, study length 76 weeks) 0.0413 mg/kg/day (inactive); (mouse, strain B6C3F1, males, oral dosing, site: lung, lesion: adenoma, dosed 76 weeks, study length 76 weeks) 0.0156 mg/kg/day (inactive). Besides, the carcinogen call runs as follows: (mouse, strain B6AKF1, females, oral dosing, site: liver, lesion: hepatoma, dosed 76 weeks, study length 76 weeks) “negative (inactive)”; (mouse, strain B6AKF1, females, oral dosing, site: lung, lesion: several types, types named in the paper, dosed 76 weeks, study length 76 weeks) “negative (inactive)”; (mouse, strain B6C3F1, females, oral dosing, site: any site (literature study), lesion: several types, types named in the paper, dosed 76 weeks, study length 76 weeks) “negative (inactive)”; (mouse, strain B6C3F1, females, oral dosing, site: liver, lesion: hepatoma, dosed 76 weeks, study length 76 weeks) “negative (inactive)”; (mouse, strain B6C3F1, females, oral dosing, site: lung, lesion: adenoma, dosed 76 weeks, study length 76 weeks) “negative (inactive)”; (mouse, strain B6C3F1, males, oral dosing, site: liver, lesion: hepatoma, dosed 76 weeks, study length 76 weeks) “negative (inactive)”.

On to `C=CCN(CCO)N=O`, for which the TD50 by setting is: (rat, strain Fischer 344, females, in drinking water, site: liver, lesion: hepatocellular carcinoma, dosed 50 weeks, study length 65 weeks) 4.12 mg/kg/day; (rat, strain Fischer 344, females, in drinking water, site: nasal cavity, lesion: several types, types named in the paper, dosed 50 weeks, study length 65 weeks) 0.491 mg/kg/day.

With `Nc1ccc(Oc2ccc(N)c(N)c2)cc1`, the TD50 (mouse, strain ICR/Jcl, males, in feed, site: liver, lesion: hepatoma, dosed 52 weeks, study length 52 weeks) was 13.3 mg/kg/day.

Take `CCNC(=O)Nc1ncc([N+](=O)[O-])s1`: the TD50 is 1400 mg/kg/day (inactive) (mouse, strain B6C3F1, females, in feed, site: any site (literature study), lesion: several types, types named in the paper, dosed 94 weeks, study length 104 weeks); 2720 mg/kg/day (mouse, strain B6C3F1, females, in feed, site: liver, lesion: hepatocellular adenoma + hepatocellular carcinoma + neoplastic nodule, dosed 94 weeks, study length 104 weeks); 4750 mg/kg/day (mouse, strain B6C3F1, males, in feed, site: any site (literature study), lesion: several types, types named in the paper, dosed 94 weeks, study length 104 weeks); 758 mg/kg/day (mouse, strain B6C3F1, males, in feed, site: liver, lesion: hepatocellular adenoma + hepatocellular carcinoma + neoplastic nodule, dosed 94 weeks, study length 104 weeks); 758 mg/kg/day (mouse, strain B6C3F1, males, in feed, site: liver, lesion: hepatocellular adenoma + hepatocellular carcinoma, dosed 94 weeks, study length 104 weeks); 1900 mg/kg/day (mouse, strain B6C3F1, males, in feed, site: liver, lesion: hepatocellular carcinoma, dosed 94 weeks, study length 104 weeks). Moreover, the TD50 runs as follows: (rat, strain Fischer 344, females, in feed, site: any site (literature study), lesion: several types, types named in the paper, dosed 94 weeks, study length 104 weeks) 175 mg/kg/day; (rat, strain Fischer 344, females, in feed, site: mammary gland + skin + subcutaneous tissue, lesion: cystadenoma, NOS + fibroadenoma, dosed 94 weeks, study length 104 weeks) 131 mg/kg/day; (rat, strain Fischer 344, males, in feed, site: liver, lesion: hepatocellular adenoma + hepatocellular carcinoma + neoplastic nodule, dosed 94 weeks, study length 104 weeks) 508 mg/kg/day. Moreover, under “rat, strain Fischer 344, males, in feed, site: any site (literature study), lesion: several types, types named in the paper, dosed 94 weeks, study length 104 weeks”, the carcinogen call is “negative (inactive)”.

Consider `C[C@]12C=CC(=O)C=C1CC[C@@H]1[C@@H]2C(=O)C[C@@]2(C)[C@H]1CC[C@]2(O)C(=O)CO`, for which the carcinogen call (mouse, strain Charles River CD1, females, in feed, site: liver, lesion: several types, types named in the paper, dosed 78 weeks, study length 78 weeks) is “negative (inactive)”; the carcinogen call (mouse, strain Charles River CD1, females, in feed, site: lung, lesion: alveolar/bronchiolar tumor, dosed 78 weeks, study length 78 weeks) is “negative (inactive)”; the carcinogen call (mouse, strain Charles River CD1, females, in feed, site: lung, lesion: undifferentiated carcinoma, dosed 78 weeks, study length 78 weeks) was “negative (inactive)”; the carcinogen call (mouse, strain Charles River CD1, males, in feed, site: liver, lesion: several types, types named in the paper, dosed 78 weeks, study length 78 weeks) was “negative (inactive)”; the carcinogen call (mouse, strain Charles River CD1, males, in feed, site: lung, lesion: alveolar/bronchiolar tumor, dosed 78 weeks, study length 78 weeks) was “negative (inactive)”.

Turning to `CC(C)CN(N=O)C(=N)N[N+](=O)[O-]`, under “rat, strain Wistar, males, in drinking water, site: stomach, glandular, lesion: one or several types, types not named, dosed 52 weeks, study length 78 weeks”, the carcinogen call is “negative (inactive)”.

Source of the values: PubChem BioAssay AID1745844 (Carcinogenic Potency Database (CPDB), 2022).
